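Assay format: 96-well plates, 48-hour exposure. TGI marks complete inhibition of growth.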
How the values were obtained:
Test in all cases: NCI-60 cell line screen, 48 h
SF-268 CNS = tested on: SF-268 CNS
SK-MEL-5 melanoma = tested on: SK-MEL-5 melanoma
RPMI-8226 leukemia = tested on: RPMI-8226 leukemia
SR leukemia = tested on: SR leukemia
SK-OV-3 ovarian = tested on: SK-OV-3 ovarian
CCRF-CEM leukemia = tested on: CCRF-CEM leukemia
SK-MEL-28 melanoma = tested on: SK-MEL-28 melanoma
SNB-19 CNS = tested on: SNB-19 CNS
UACC-62 melanoma = tested on: UACC-62 melanoma
OVCAR-3 ovarian = tested on: OVCAR-3 ovarian
NCI-H226 lung = tested on: NCI-H226 lung
MDA-MB-435 = tested on: MDA-MB-435
NCI-H522 lung = tested on: NCI-H522 lung
IGROV1 ovarian = tested on: IGROV1 ovarian
SF-539 CNS = tested on: SF-539 CNS
ACHN renal = tested on: ACHN renal
SF-295 CNS = tested on: SF-295 CNS
HOP-92 NSCLC = tested on: HOP-92 NSCLC
HT29 colon = tested on: HT29 colon
HS 578T breast = tested on: HS 578T breast
TK-10 renal = tested on: TK-10 renal
EKVX NSCLC = tested on: EKVX NSCLC
DU-145 prostate = tested on: DU-145 prostate
HCC-2998 colon = tested on: HCC-2998 colon
MDA-MB-231 breast = tested on: MDA-MB-231 breast
A498 renal = tested on: A498 renal
OVCAR-4 ovarian = tested on: OVCAR-4 ovarian
HCT-116 colon = tested on: HCT-116 colon
KM12 colon = tested on: KM12 colon
MALME-3M melanoma = tested on: MALME-3M melanoma
T-47D breast = tested on: T-47D breast
SK-MEL-2 melanoma = tested on: SK-MEL-2 melanoma
NCI-H23 lung = tested on: NCI-H23 lung
MCF7 breast = tested on: MCF7 breast
LOX IMVI melanoma = tested on: LOX IMVI melanoma
COLO 205 colon = tested on: COLO 205 colon
BT-549 breast = tested on: BT-549 breast
HOP-62 NSCLC = tested on: HOP-62 NSCLC
A549 NSCLC = tested on: A549 NSCLC
OVCAR-8 ovarian = tested on: OVCAR-8 ovarian
K-562 leukemia = tested on: K-562 leukemia
OVCAR-5 ovarian = tested on: OVCAR-5 ovarian
HL-60(TB) leukemia = tested on: HL-60(TB) leukemia
U251 CNS = tested on: U251 CNS
SN12C renal = tested on: SN12C renal
MOLT-4 leukemia = tested on: MOLT-4 leukemia
NCI/ADR-RES ovarian = tested on: NCI/ADR-RES ovarian
NCI-H460 lung = tested on: NCI-H460 lung
MDA-N = tested on: MDA-N
CAKI-1 renal = tested on: CAKI-1 renal
M14 melanoma = tested on: M14 melanoma
HCT-15 colon = tested on: HCT-15 colon
UACC-257 melanoma = tested on: UACC-257 melanoma
SW-620 colon = tested on: SW-620 colon
SNB-75 CNS = tested on: SNB-75 CNS
RXF 393 renal = tested on: RXF 393 renal
UO-31 renal = tested on: UO-31 renal
PC-3 prostate = tested on: PC-3 prostate
786-0 renal = tested on: 786-0 renal

Measured: TGI

O=C1Oc2ccccc2C(=O)/C1=C1/C=C(c2ccccc2)SS1
71.8 µM: MOLT-4 leukemia
45.2 µM: HL-60(TB) leukemia
49.6 µM: CCRF-CEM leukemia
61.3 µM: SR leukemia
> 100 µM: SF-268 CNS | SK-MEL-5 melanoma | RPMI-8226 leukemia | SK-OV-3 ovarian | SK-MEL-28 melanoma | SNB-19 CNS | UACC-62 melanoma | OVCAR-3 ovarian | NCI-H226 lung | MDA-MB-435 | NCI-H522 lung | IGROV1 ovarian | SF-539 CNS | ACHN renal | SF-295 CNS | HOP-92 NSCLC | HT29 colon | HS 578T breast | TK-10 renal | EKVX NSCLC | DU-145 prostate | HCC-2998 colon | MDA-MB-231 breast | A498 renal | OVCAR-4 ovarian | HCT-116 colon | KM12 colon | MALME-3M melanoma | T-47D breast | SK-MEL-2 melanoma | NCI-H23 lung | MCF7 breast | LOX IMVI melanoma | COLO 205 colon | BT-549 breast | HOP-62 NSCLC | A549 NSCLC | OVCAR-8 ovarian | K-562 leukemia | OVCAR-5 ovarian | U251 CNS | SN12C renal | NCI/ADR-RES ovarian | NCI-H460 lung | MDA-N | CAKI-1 renal | M14 melanoma | HCT-15 colon | UACC-257 melanoma | SW-620 colon | SNB-75 CNS | RXF 393 renal | UO-31 renal | PC-3 prostate | 786-0 renal

O=c1ccc2ccc(S)cc2o1
> 100 µM: SF-268 CNS | SK-MEL-5 melanoma | RPMI-8226 leukemia | SR leukemia | SK-OV-3 ovarian | SK-MEL-28 melanoma | SNB-19 CNS | UACC-62 melanoma | OVCAR-3 ovarian | NCI-H226 lung | MDA-MB-435 | NCI-H522 lung | IGROV1 ovarian | SF-539 CNS | ACHN renal | SF-295 CNS | HOP-92 NSCLC | HT29 colon | HS 578T breast | TK-10 renal | EKVX NSCLC | DU-145 prostate | HCC-2998 colon | MDA-MB-231 breast | A498 renal | OVCAR-4 ovarian | HCT-116 colon | KM12 colon | MALME-3M melanoma | T-47D breast | SK-MEL-2 melanoma | NCI-H23 lung | MCF7 breast | LOX IMVI melanoma | COLO 205 colon | BT-549 breast | HOP-62 NSCLC | A549 NSCLC | OVCAR-8 ovarian | OVCAR-5 ovarian | HL-60(TB) leukemia | U251 CNS | SN12C renal | MOLT-4 leukemia | NCI/ADR-RES ovarian | NCI-H460 lung | MDA-N | CAKI-1 renal | M14 melanoma | HCT-15 colon | UACC-257 melanoma | SW-620 colon | SNB-75 CNS | RXF 393 renal | UO-31 renal | PC-3 prostate | 786-0 renal

CN(O)C(=O)/C=C/c1ccc(OCc2cccc(Cl)c2)cc1
39.6 µM: MOLT-4 leukemia
49 µM: NCI-H23 lung
66 µM: A498 renal
62.6 µM: CAKI-1 renal
85.3 µM: BT-549 breast
65.6 µM: CCRF-CEM leukemia
30.5 µM: LOX IMVI melanoma
34.9 µM: HT29 colon
> 100 µM: SF-268 CNS | SK-OV-3 ovarian | SK-MEL-28 melanoma | SNB-19 CNS | OVCAR-3 ovarian | MDA-MB-435 | NCI-H522 lung | SF-539 CNS | SF-295 CNS | HOP-92 NSCLC | HS 578T breast | TK-10 renal | EKVX NSCLC | MDA-MB-231 breast | MCF7 breast | COLO 205 colon | HOP-62 NSCLC | K-562 leukemia | OVCAR-5 ovarian | U251 CNS | MDA-N | M14 melanoma | UACC-257 melanoma | SW-620 colon | SNB-75 CNS | RXF 393 renal | PC-3 prostate
32.9 µM: HCT-116 colon
29.1 µM: HCT-15 colon
63.5 µM: A549 NSCLC
47.2 µM: 786-0 renal
23.5 µM: UO-31 renal
96.9 µM: RPMI-8226 leukemia
32.8 µM: OVCAR-8 ovarian
60.8 µM: IGROV1 ovarian
46.7 µM: NCI/ADR-RES ovarian
72.7 µM: HCC-2998 colon
82.7 µM: SK-MEL-2 melanoma
86.6 µM: OVCAR-4 ovarian
29.9 µM: ACHN renal
43.3 µM: NCI-H460 lung
38.4 µM: SR leukemia
66.5 µM: T-47D breast
78.2 µM: SK-MEL-5 melanoma
31.3 µM: UACC-62 melanoma
41.3 µM: KM12 colon
55.9 µM: SN12C renal
54.8 µM: DU-145 prostate
73.9 µM: NCI-H226 lung
52 µM: HL-60(TB) leukemia
